From publication PMC3260207, “Site-Directed Mutations and the Polymorphic Variant Ala160Thr in the Human Thromboxane Receptor Uncover a Structural Role for Transmembrane Helix 4” (PLoS ONE, 2012)
Positions count from the first letter of the chain named. Where “and” joins values, the source holds several entries; their conditions need not be identical. Identical values can stand only once.

Experiments:
Experiment in all cases: Intracellular calcium mobilization (Fluo-4NW) in transfected HEK293T cells
Assay type in all cases: cell-based
[1] = molecular target: T1, WT-TP (wild type human thromboxane A2 receptor TPα) (Homo sapiens, UniProt P21731); conditions: read-out: EC50 of agonist U46619 (calcium mobilized), transiently transfected HEK293T cells, mean ± S.E
T1 construct: expressed in transfected cells; HEK293T (calcium assays)
T1 sequence (P21731 1-343): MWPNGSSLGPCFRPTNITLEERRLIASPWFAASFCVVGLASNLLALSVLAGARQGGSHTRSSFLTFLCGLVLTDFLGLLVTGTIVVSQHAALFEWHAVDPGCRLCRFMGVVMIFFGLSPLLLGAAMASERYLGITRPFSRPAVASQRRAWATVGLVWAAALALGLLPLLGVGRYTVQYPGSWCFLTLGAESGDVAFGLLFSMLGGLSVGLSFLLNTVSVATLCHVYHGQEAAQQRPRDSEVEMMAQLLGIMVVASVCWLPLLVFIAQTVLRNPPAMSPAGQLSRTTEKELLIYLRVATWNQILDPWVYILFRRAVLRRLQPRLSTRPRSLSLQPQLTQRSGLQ
Procedure: (§1) Amino acid substitutions were introduced into the synthetic TPα gene carried by the expression vector pMT4 as described previously, [29]. DNA sequences of all the mutated genes were verified by automated DNA sequencing. To minimize variations in transfection efficiency, the total amount transfected DNA was kept constant in all cases at 1 µg of DNA per 7×10^5 cells. The wild type TP or mutant genes were expressed in COS-1 cells using a DEAE-dextran based transient transfection method, [29], and in HEK293T cells using lipofectamine 2000 (Invitrogen). Except unless specified, the membranes prepared from COS-1 cells were used for radioligand binding assays and immunoblots. For intracellular calcium determination assays and immunofluorescence imaging, HEK293T cells were used. For transient transfections of HEK293T cells using the plasmid pMT4, lipofectamine 2000 (Invitrogen) mediated transfection was used as described by the manufacturer. Membranes were prepared using Buffers A and B and as described previously, [29]. The protein concentration in the resuspended membrane pellet was determined using a modified DC protein assay kit from Bio-Rad Laboratories (Hercules, CA).
(§2) Changes in intracellular calcium were measured by using the fluorescent calcium sensitive dye Fluo-4NW (Invitrogen). After 6–8 hours of transient transfection of HEK293T cells using lipofectamine 2000, 100,000 viable cells were plated into each well of a 96-well tissue culture treated BD-falcon optilux plates. Cells mock transfected with vector pMT4 alone were used as a negative control. Following 24 hours of incubation at 37°C, the media was removed and cells were incubated with the dye Fluo-4NW (Invitrogen) containing 77 µg/ml of probenecid for 1 hour, as recommended by the manufacturer. […] Dose–response curves were generated and EC50 values calculated by nonlinear regression analysis using PRISM software version 5.0 (GraphPad Software Inc, San Diego, CA) after subtracting the responses of mock-transfected cells stimulated with same concentrations of agonists.

[2] = molecular target: T2, TP G164V/V110A double mutant (Homo sapiens, UniProt P21731, G164V/V110A); conditions: response could be restored upon stimulation with elevated levels of U46619
T2 construct: expressed in transfected cells; transient, pMT4
T2 sequence (P21731 1-343 V110A/G164V): T1 sequence (P21731 1-343) with V110A, G164V
Procedure: as §1, §2

TP A160V mutant = molecular target: T3, TP A160V mutant (Homo sapiens, UniProt P21731, A160V); conditions: read-out: EC50 of agonist U46619 (calcium mobilized), transiently transfected HEK293T cells, mean ± S.E
T3 construct: expressed in transfected cells; HEK293T (calcium assays)
T3 sequence (P21731 1-343 A160V): T1 sequence (P21731 1-343) with A160V
Procedure: as §1, §2

TP A160S mutant = molecular target: T4, TP A160S mutant (Homo sapiens, UniProt P21731, A160S); conditions: read-out: EC50 of agonist U46619 (calcium mobilized), transiently transfected HEK293T cells, mean ± S.E
T4 construct: expressed in transfected cells; HEK293T (calcium assays)
T4 sequence (P21731 1-343 A160S): T1 sequence (P21731 1-343) with A160S
Procedure: as §1, §2

TP F107A mutant = molecular target: T5, TP F107A mutant (Homo sapiens, UniProt P21731, F107A); conditions: read-out: EC50 of agonist U46619 (calcium mobilized), transiently transfected HEK293T cells, mean ± S.E
T5 construct: expressed in transfected cells; HEK293T (calcium assays)
T5 sequence (P21731 1-343 F107A): T1 sequence (P21731 1-343) with F107A
Procedure: as §1, §2

EC50 [1]: 13 nM and 13.1 nM | Calcium response to U46619 [2]: reduced calcium response | EC50 (TP A160V mutant): 9.5 ± 0.2 nM | EC50 (TP A160S mutant): 9.3 ± 0.3 nM | EC50 (TP F107A mutant): 2.5 ± 0.7 nM
SMILES: CCCCC[C@H](O)/C=C/[C@@H]1[C@@H](C/C=C\CCCC(=O)O)[C@H]2CO[C@@H]1C2 [U46619]
